Experimental data from US7348427B2, “Antipathogenic benzamide compounds” (Genesoft Pharmaceuticals, Inc., priority 2001, dated 2008).

How the values were obtained:
S. pneumoniae ATCC 49619 = experiment: MIC, NCCLS broth microdilution assay; format: cell-based, Streptococcus pneumoniae; details: H = S. pneumoniae ATCC 49619
How it was run: (§1)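 MICs were determined by NCCLS broth microdilution following documents M7-A4 and M11-A4 (1997).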

[1] = test system: Candida albicans (ATCC 38247); experiment: Antifungal MIC assay; format: cell-based; details: B = C. albicans ATCC 38247
How it was run: (§2)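 The antifungal assay used the Manual of Clinical Microbiology (1995) procedure. […] minimal inhibitory concentrations came from NCCLS broth microdilution per M7-A4, M11-A4 and M27-T.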

[2] = test system: Staphylococcus aureus (ATCC 13709, a methicillin sensitive strain (MSSA)); experiment: MIC, NCCLS broth microdilution assay; format: cell-based; details: E = S. aureus ATCC 13709
How it was run: as §2

[3] = test system: Streptococcus pneumoniae (ATCC 51422, a penicillin resistant strain (PRSP)); experiment: MIC, NCCLS broth microdilution assay; format: cell-based; details: I = S. pneumoniae ATCC 51422
How it was run: as §2

[4] = test system: Staphylococcus epidermidis (ATCC 12228); experiment: MIC, NCCLS broth microdilution assay; format: cell-based; details: G = S. epidermidis ATCC 12228
How it was run: as §2

[5] = test system: Enterococcus faecium (ATCC 51559, a vancomycin resistant strain (VRE)); experiment: MIC, NCCLS broth microdilution assay; format: cell-based; details: D = E. faecium ATCC 51559
How it was run: as §2

[6] = test system: Staphylococcus aureus (ATCC 27660, a methicillin resistant strain (MRSA)); experiment: MIC, NCCLS broth microdilution assay; format: cell-based; details: F = S. aureus ATCC 27660
How it was run: as §2

[7] = test system: Bacillus cereus (ATCC 11778); experiment: MIC, NCCLS broth microdilution assay; format: cell-based; details: A = B. cereus ATCC 11778
How it was run: as §2

E. faecalis ATCC 29212 = experiment: MIC, NCCLS broth microdilution assay; format: cell-based, Enterococcus faecalis; details: C = E. faecalis ATCC 29212
How it was run: as §1

| Compound | Minimum Inhibitory Concentration (MIC) (S. pneumoniae ATCC 49619) | Minimum Inhibitory Concentration (MIC) [1] | Minimum Inhibitory Concentration (MIC) [2] | Minimum Inhibitory Concentration (MIC) [3] | Minimum Inhibitory Concentration (MIC) [4] | Minimum Inhibitory Concentration (MIC) [5] | Minimum Inhibitory Concentration (MIC) [6] | Minimum Inhibitory Concentration (MIC) [7] | Minimum Inhibitory Concentration (MIC) (E. faecalis ATCC 29212) |
| --- | --- | --- | --- | --- | --- | --- | --- | --- | --- |
| CCN(CC)CCNC(=O)c1cc(NC(=O)c2cc(NC(=O)c3cc(NC(=O)c4ccc(Cl)cc4F)c[nH]3)cn2C)cn1C [Compound A-16] | +++ (+++ = MIC ≦ 4) | +++ (+++ = MIC ≦ 4) | +++ (+++ = MIC ≦ 4) | +++ (+++ = MIC ≦ 4) | +++ (+++ = MIC ≦ 4) | +++ (+++ = MIC ≦ 4) | +++ (+++ = MIC ≦ 4) | +++ (+++ = MIC ≦ 4) | +++ (+++ = MIC ≦ 4) |
| CN(C)CCCNC(=O)c1cc(NC(=O)c2cc(NC(=O)c3cc(NC(=O)c4ccc(Cl)cc4F)c[nH]3)cn2C)cn1C [Compound A-13] | +++ (+++ = MIC ≦ 4) | +++ (+++ = MIC ≦ 4) | +++ (+++ = MIC ≦ 4) | +++ (+++ = MIC ≦ 4) | +++ (+++ = MIC ≦ 4) | + (+ = 12 ≦ MIC ≦ 32) | +++ (+++ = MIC ≦ 4) | +++ (+++ = MIC ≦ 4) | ++ (++ = 4 < MIC < 12) |
| Cn1cc(NC(=O)c2cc(NC(=O)c3ccc(Cl)cc3F)c[nH]2)cc1C(=O)NCCN1CCC(F)(F)CC1 [Compound A-22] | +++ (+++ = MIC ≦ 4) | >32 µg/mL | +++ (+++ = MIC ≦ 4) | +++ (+++ = MIC ≦ 4) | +++ (+++ = MIC ≦ 4) | +++ (+++ = MIC ≦ 4) | +++ (+++ = MIC ≦ 4) | +++ (+++ = MIC ≦ 4) | +++ (+++ = MIC ≦ 4) |
| Cc1cc(NC(=O)c2cc(NC(=O)c3cc(NC(=O)c4ccc(Cl)cc4F)c[nH]3)cn2CCN2CCOCC2)sn1 [Compound D-9] | +++ (+++ = MIC ≦ 4) | >32 µg/mL | +++ (+++ = MIC ≦ 4) | +++ (+++ = MIC ≦ 4) | +++ (+++ = MIC ≦ 4) | +++ (+++ = MIC ≦ 4) | +++ (+++ = MIC ≦ 4) | +++ (+++ = MIC ≦ 4) | +++ (+++ = MIC ≦ 4) |
| Cn1cc(NC(=O)c2cc(NC(=O)c3cc(NC(=O)c4cc(NC(=O)c5ccc(F)cc5F)c[nH]4)cn3C)cn2C)cc1C(=O)NCCN1CCOCC1 [Compound A-2] |  | >32 µg/mL |  |  | + (+ = 12 ≦ MIC ≦ 32) | + (+ = 12 ≦ MIC ≦ 32) | + (+ = 12 ≦ MIC ≦ 32) | +++ (+++ = MIC ≦ 4) | ++ (++ = 4 < MIC < 12) |
| Cn1cc(NC(=O)c2cc(NC(=O)c3cc(NC(=O)c4ccc(Cl)c(Cl)c4)cn3C)cn2C)cc1C(=O)NCCN1CCOCC1 [Compound B-53] | +++ (+++ = MIC ≦ 4) | >32 µg/mL | +++ (+++ = MIC ≦ 4) | +++ (+++ = MIC ≦ 4) | +++ (+++ = MIC ≦ 4) | +++ (+++ = MIC ≦ 4) | +++ (+++ = MIC ≦ 4) | +++ (+++ = MIC ≦ 4) | +++ (+++ = MIC ≦ 4) |
| Cn1cc(NC(=O)c2cc(NC(=O)c3cc(NC(=O)c4ccc(F)cc4F)cn3C)cn2C)cc1C(=O)NCCN1CCC(F)(F)CC1 [Compound B-27] | +++ (+++ = MIC ≦ 4) | >32 µg/mL | +++ (+++ = MIC ≦ 4) | +++ (+++ = MIC ≦ 4) | +++ (+++ = MIC ≦ 4) | +++ (+++ = MIC ≦ 4) | +++ (+++ = MIC ≦ 4) | +++ (+++ = MIC ≦ 4) | +++ (+++ = MIC ≦ 4) |
| Cc1cc(NC(=O)c2cc(NC(=O)c3cc(NC(=O)c4ccc(F)cc4F)c[nH]3)cn2CCN2CCOCC2)sn1 [Compound D-4] | >32 µg/mL | >32 µg/mL | >32 µg/mL | +++ (+++ = MIC ≦ 4) |  |  | >32 µg/mL | >32 µg/mL | >32 µg/mL |
| Cn1cc(NC(=O)c2cc(NC(=O)c3ccc(F)cc3)cn2C)cc1C(=O)NCCN1CCOCC1 [Compound B-36] | + (+ = 12 ≦ MIC ≦ 32) | >32 µg/mL | >32 µg/mL | >32 µg/mL |  | + (+ = 12 ≦ MIC ≦ 32) | >32 µg/mL | >32 µg/mL | >32 µg/mL |
| Cn1cc(NC(=O)c2cc(NC(=O)c3cc(NC(=O)c4cc(NC(=O)c5ccc(F)cc5)cn4C)cn3C)cn2C)cc1C(=O)NCCN1CCSCC1 [Compound B-35] | +++ (+++ = MIC ≦ 4) | >32 µg/mL | +++ (+++ = MIC ≦ 4) |  |  |  | +++ (+++ = MIC ≦ 4) | +++ (+++ = MIC ≦ 4) | +++ (+++ = MIC ≦ 4) |
| Cn1cc(NC(=O)c2cc(NC(=O)c3cc(NC(=O)c4ccc(F)cc4F)c[nH]3)cn2C)cc1C(=O)NCCN1CCOCC1 [Compound A-1] | +++ (+++ = MIC ≦ 4) | >32 µg/mL | +++ (+++ = MIC ≦ 4) |  |  |  | ++ (++ = 4 < MIC < 12) | +++ (+++ = MIC ≦ 4) | +++ (+++ = MIC ≦ 4) |
| Cn1cc(NC(=O)c2cc(NC(=O)c3cc(NC(=O)c4ccc(Cl)cc4F)c[nH]3)cn2CCCO)cc1C(=O)NCCN1CCOCC1 [Compound C-15] | +++ (+++ = MIC ≦ 4) | >32 µg/mL | ++ (++ = 4 < MIC < 12) |  |  |  | +++ (+++ = MIC ≦ 4) | ++ (++ = 4 < MIC < 12) | + (+ = 12 ≦ MIC ≦ 32) |
| Cn1cc(NC(=O)c2cc(NC(=O)c3ccc(F)cc3F)cn2C)cc1C(=O)NCCN1CCCC1 [Compound B-16] | +++ (+++ = MIC ≦ 4) | >32 µg/mL | ++ (++ = 4 < MIC < 12) |  |  |  | ++ (++ = 4 < MIC < 12) | ++ (++ = 4 < MIC < 12) | +++ (+++ = MIC ≦ 4) |
| Cc1cc(NC(=O)c2cc(NC(=O)c3cc(NC(=O)c4ccc(Cl)cc4NCCN4CCOCC4)cn3C)c[nH]2)sn1 [Compound C-21] | +++ (+++ = MIC ≦ 4) | >32 µg/mL | ++ (++ = 4 < MIC < 12) |  |  |  | +++ (+++ = MIC ≦ 4) | ++ (++ = 4 < MIC < 12) | ++ (++ = 4 < MIC < 12) |
| CN(C)CC(C)(C)CNC(=O)c1cc(NC(=O)c2cc(NC(=O)c3ccc(F)cc3F)cn2C)cn1C [Compound B-15] | + (+ = 12 ≦ MIC ≦ 32) | >32 µg/mL | >32 µg/mL |  |  |  | >32 µg/mL | >32 µg/mL | >32 µg/mL |
| C[C@@H]1CCC[C@H](C)N1CCNC(=O)c1cc(NC(=O)c2cc(NC(=O)c3cc(NC(=O)c4ccc(F)cc4F)cn3C)cn2C)cn1C [Compound B-20] | +++ (+++ = MIC ≦ 4) | >32 µg/mL | +++ (+++ = MIC ≦ 4) |  |  |  | ++ (++ = 4 < MIC < 12) | +++ (+++ = MIC ≦ 4) | + (+ = 12 ≦ MIC ≦ 32) |
| Cn1cc(NC(=O)c2cc(NC(=O)c3cc(NC(=O)c4ccc(Cl)cc4NCCN4CCCCC4)cn3C)cn2C)cc1C(N)=O [Compound B-65] | ++ (++ = 4 < MIC < 12) | >32 µg/mL | + (+ = 12 ≦ MIC ≦ 32) |  |  |  | ++ (++ = 4 < MIC < 12) | ++ (++ = 4 < MIC < 12) | + (+ = 12 ≦ MIC ≦ 32) |
